# Experimental data published in patent US20250059499A1, “CELL-SURFACE ENGINEERING COMPOSITIONS AND METHODS FOR THE PREVENTION OF IMMUNE REJECTION” (THE UNIVERSITY OF BRITISH COLUMBIA, priority 2021, published 2025).
# Entries after “also recorded” stand apart in the source; their conditions may differ. LPG = linear polyglycerol, Mn 14,900 Da
# Columns and labels:
# [1] = tested on: TNF-α activated Ea.hy926 cells co-cultured with IL-2 activated PBMCs
# Description: EA.hy 926 monolayers were activated using TNF-α and PBMCs were activated using IL-2 as described in PBMC adhesion experiments. Following activation, PBMC was collected and resuspended in DMEM (Phenol free, 5% FBS, pen/strep). PBMCs were then added to activated EA.hy 926 monolayers (modified and unmodified) to a final concentration of 0.15×10^6 cells/mL and left to incubate at 37° C. and 5% CO2 for 18 hour. After treatment, the supernatant was collected and cell debris was removed through centrifugation. LDH content was measured using LDC cytotoxicity assay (Biovision Inc.™). Cytotoxicity was calculated using the equation below;
# where, LDHsample is the amount of LDH released from the sample, LDHPBMC is the amount of LDH released from PBMC samples not subjected to EA.hy 926 monolayers, LDHalive is the amount of LDH released from EA.hy 926 monolayers not subjected to PBMCs, and LDHdead is the amount of LDH released of EA.hy926 monolayers treated with RIPA buffer for 10 minutes at room temperature.
# [2] = tested on: Ea.hy926 cells; assay: Lifetime of grafted polymer on the cell surface; assay type: cell-based; settings: 37° C., after ligation with 0.5 mM polymer
# Description: For lifetime measurements, polymers were attached to endothelial surfaces according to procedures outlined herein using 0.5 mM LPG-Q (10% BODIPY FL™) and exchanged into phenol-free DMEM (5% FBS, pen/strep) and incubated at 37° C. and 5% CO2. For each time point the supernatant was removed and saved for further analysis and the cell monolayers were trypsinized and subjected to flow cytometry (CytoFLEX™, Beckman Coulter™) in which 10,000 events were acquired and the median fluorescent intensity (MFI) in the 488 channel was recorded. The fluorescent intensity of the BODIPY-FL Dye in the supernatant was measured (λex/λem=503/520 nm using) a plate reader (Spectramax i3™, Molecular Devices™). Intensity values were normalized to the total cell number in each well as assessed by a trypan blue staining assay.
# [3] = tested on: Ea.hy926 cells; assay: Enzyme-mediated glycocalyx removal from endothelial surface (loss of attached polymer); assay type: cell-based; settings: 0.1 mM H2O2 and 1 nM epinephrine, 1 hour at 37° C.
# Description: Ea.hy926 endothelial cells were treated with 0.5 mM LPG-SS or LPG-Q (containing 10% BODIPY FL) for 30 min at 4° C. in UW solution fortified with 3 mM GSH, 5 mM CaCl2, 0.2 U/mL gtTGase. […] Cells were washed, trypsinized and immediately subjected to flow cytometry. Controls with no enzyme treatment were used to set gates for 100% labeled cell populations.
# [4] = tested on: cell-surface ICAM-1; assay: ICAM-1 labelling by flow cytometry (immunocamouflage); assay type: cell-based, human; settings: TNF-α activated Ea.hy926, 0.2-3.0 mM polymer, UW, 4° C.
# Description: For ICAM-1 labelling, Ea.hy926 cells were activated with TNF-α (2000 U/mL, 3 hours)^9 in serum deficient DMEM to stimulate the expression of ICAM-1 on the cell surface before polymer attachment. To account for differences in reactivity between Q-tagged polymers, concentrations of polymer added to the solution were adjusted using NH3 generation data to ensure that a similar number of polymers attached to the cell surface. Following polymer attachment, the cells were fixed, and labelled with PE-Cy™5 Mouse Anti-Human CD54 (1:20, BD Biosciences™) for 20 minutes at room temp in the dark. The cell monolayers were trypsinized and subjected to flow cytometry (CytoFLEX™, Beckman Coulter™) in which 10,000 events were acquired and the median fluorescent intensity in the 667 channel was recorded
substance,measurement,setting,value
linear polyglycerol glutamine (Ac-GQQQLGGGGG-{LPG}; not fully specified; also: part of the polymer BODIPY FL-labelled in some experiments) [LPG-Q],decrease of PBMC-mediated cytotoxicity compared to unmodified cells,[1],under 2 fold
same,dependence of PBMC-mediated cytotoxicity suppression on polymer concentration or sialylation,[1],no continued significant increase in immunosuppression was observed beyond 0.27 mM
same,half-life (t1/2) on the cell surface,[2],8 h
same,polymer retained / glycocalyx specificity after enzyme-mediated glycocalyx removal,[3],higher specificity for glycocalyx modification
same,detection of ICAM-1 on the surface of endothelial cells,[4],camouflages pro-inflammatory ICAM-1 receptors in a dose-dependent manner; also recorded: reduced the detection of ICAM-1
